Measurements from article PMC8510601, “Discovery of benzamide-hydroxypyridinone hybrids as potent multi-targeting agents for the treatment of Alzheimer's disease” (Journal of Enzyme Inhibition and Medicinal Chemistry, 2021).

Columns and labels:
[1] = pKa determination by spectrophotometric titration; conditions: 0.1 M KCl aqueous solution, pH range 2.0–10.5, 25 °C
[2] = Iron-chelating activity test: affinity constants for Fe3+ and pFe3+; conditions: for Log β2 / Log β3: KCl (0.1 M): DMSO = 3:2 (v/v); for Log β1: KCl (0.1 M): DMSO = 9:1 (v/v); for pFe^3+: pH 7.4, [Fe3+]total = 10^−6 M, [ligand]total = 10^−5 M, calculated from pKa and log β measured in KCl/DMSO
[3] = molecular target: T1, MAO-B (Homo sapiens, UniProt P27338); experiment: Human MAO-B inhibition assay; assay type: biochemical; conditions: for inhibition at 0.1 µM: 100 nM, read-out: Inhibitory rate ± SEM (%, 100 nM); for inhibition at 1 µM: read-out: Inhibitory rate ± SEM (%, 1 μM); for IC50: ± SEM, read-out: IC50 against MAO-B
T1 sequence (P27338 1-520): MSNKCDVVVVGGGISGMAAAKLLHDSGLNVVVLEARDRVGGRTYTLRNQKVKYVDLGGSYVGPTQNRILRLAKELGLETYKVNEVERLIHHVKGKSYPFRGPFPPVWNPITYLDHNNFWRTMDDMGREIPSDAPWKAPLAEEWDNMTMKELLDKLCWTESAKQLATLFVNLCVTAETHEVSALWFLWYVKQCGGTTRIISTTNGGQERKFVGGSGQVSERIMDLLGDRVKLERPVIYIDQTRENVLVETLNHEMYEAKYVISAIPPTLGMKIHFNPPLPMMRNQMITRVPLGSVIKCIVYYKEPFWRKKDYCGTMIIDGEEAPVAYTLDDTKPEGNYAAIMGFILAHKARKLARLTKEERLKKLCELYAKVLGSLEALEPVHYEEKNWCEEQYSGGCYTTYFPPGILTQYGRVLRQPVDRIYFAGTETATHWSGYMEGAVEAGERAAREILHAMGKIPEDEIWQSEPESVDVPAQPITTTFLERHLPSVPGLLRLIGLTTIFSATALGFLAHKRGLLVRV

| Structure (SMILES) | pKa ([1]; KCl (0.1 M)) | pKa ([1]; pKa2, KCl (0.1 M)) | melting point [°C] | Log β2 [2] | Log β3 [2] | Log β1 [2] | pFe^3+ [2] | inhibition at 0.1 µM [3] [%] | inhibition at 1 µM [3] [%] | IC50 [3] [nM] |
| --- | --- | --- | --- | --- | --- | --- | --- | --- | --- | --- |
| Cc1c(O)c(=O)ccn1CCNC(=O)c1ccc(OCc2ccc(C(C)(C)C)cc2)cc1 [Compound 8v] | 3.29 | 9.56 | 245 to 247 | 25.51 | 35.20 | 14.69 | 19.25 | 48.9 ± 1.93 | 64.2 ± 1.94 | 124 ± 1.32 |
| Cc1c(O)c(=O)ccn1CCNC(=O)c1cccnc1 [Compound 11b] | 3.09 | 9.79 | 266 to 268 | 25.68 | 34.75 | 14.40 | 18.13 | 34.1 ± 1.58 | 60.8 ± 1.99 | 248 ± 9.56 |
| Cc1c(O)c(=O)ccn1CCNC(=O)c1ccc(OCc2cccc(Cl)c2)cc1 [Compound 8n] | 3.32 | 9.55 | 236 to 238 | 25.95 | 34.39 | 14.64 | 18.51 | 47.7 ± 6.06 | 72.4 ± 3.26 | 110.9 ± 1.1 |
| Cc1c(O)c(=O)ccn1CCNC(=O)c1ccc(OCc2ccc(Cl)cc2)cc1 [Compound 8o] | 3.33 | 9.63 | – | 26.09 | 34.55 | 14.43 | 18.44 | 48.5 ± 4.37 | 63.6 ± 4.14 | 139 ± 1.74 |
| Cc1c(O)c(=O)ccn1CCNC(=O)c1ccc(OCc2ccc(F)cc2)cc1 [Compound 8m] | 3.62 | 9.76 | 254 to 256 | 26.77 | 35.31 | 15.03 | 18.81 | > 50 | 70.9 ± 2.51 | 82.8 ± 0.8 |
| Cc1c(O)c(=O)ccn1CCNC(=O)c1ccccc1 [Compound 8a] | 3.43 | 9.81 | 211 to 213 | 26.35 | 35.83 | 14.93 | 19.14 | > 50 | 77.65 ± 0.6 | 79 ± 0.3 |
| C#CCOc1ccc(C(=O)NCCn2ccc(=O)c(O)c2C)cc1 [Compound 8j] | 3.41 | 9.88 | 208 to 210 | 26.14 | 35.24 | 14.67 | 18.35 | 38.7 ± 0.94 | 58.6 ± 1.18 | – |
| COc1ccc(C(=O)NCCn2ccc(=O)c(O)c2C)cc1 [Compound 8d] | 3.34 | 9.82 | 241 to 243 | 25.95 | 35.25 | 14.52 | 18.53 | 36.02 ± 0.15 | 63 ± 3.9 | 210.8 ± 1.21 |
| Cc1c(O)c(=O)ccn1CCNC(=O)c1ccc(O)cc1 [Compound 8y] | 3.33 | 9.95 | 163 to 165 | 26.07 | 35.42 | 14.61 | 18.31 | 37.6 ± 1.01 | 55.3 ± 1.91 | – |
| CCOc1ccc(C(=O)NCCn2ccc(=O)c(O)c2C)cc1 [Compound 8h] | 3.27 | 9.8 | 246 to 248 | 26.06 | 35.33 | 14.67 | 18.67 | 48.1 ± 1.57 | 66.75 ± 0.34 | 119 ± 2.76 |
| Cc1c(O)c(=O)ccn1CCNC(=O)c1ccccn1 [Compound 11a] | 3.35 | 9.86 | 219 to 221 | 25.92 | 35.10 | 14.52 | 18.27 | 34 ± 5.19 | 61.48 ± 0.58 | – |
| Cc1c(O)c(=O)ccn1CCNC(=O)c1ccc(OCc2ccc(C(F)(F)F)cc2)cc1 [Compound 8r] | 3.25 | 9.78 | 268 to 270 | 26.01 | 34.98 | 14.48 | 18.39 | 46.5 ± 6.99 | 63.4 ± 4.06 | 187.7 ± 0.42 |
| Cc1c(O)c(=O)ccn1CCNC(=O)c1ccc(OCc2cc(F)cc(F)c2)cc1 [Compound 8q] | 3.27 | 9.82 | – | 26.63 | 35.73 | 14.61 | 19.01 | 49.7 ± 4.22 | 63.9 ± 0.67 | 93.8 ± 6.48 |
| Cc1c(O)c(=O)ccn1CCNC(=O)c1ccncc1 [Compound 11c] | 3.15 | 9.81 | 280 to 282 | 26.21 | 35.58 | 14.74 | 18.89 | 29.1 ± 2.14 | 69.7 ± 2.38 | – |
| Cc1c(O)c(=O)ccn1CCNC(=O)c1ccc(OCc2cccc(F)c2)cc1 [Compound 8l] | 3.51 | 9.74 | – | 26.72 | 35.87 | 14.76 | 19.39 | > 50 | > 80 | 96.4 ± 6.78 |
| Cc1c(O)c(=O)ccn1CCNC(=O)c1ccc(OCC2CCCCC2)cc1 [Compound 8k] | 3.21 | 9.89 | 274 to 276 | 26.31 | 35.84 | 14.44 | 18.91 | 39.5 ± 2.38 | 63.3 ± 0.92 | 189 ± 7.51 |
| Cc1c(O)c(=O)ccn1CCNC(=O)c1cccc(OCc2ccccc2)c1 [Compound 8f] | 3.38 | 9.92 | 178 to 180 | 26.85 | 35.33 | 14.75 | 18.38 | 37.9 ± 1.22 | 54.57 ± 0.51 | – |
| Cc1c(O)c(=O)ccn1CCNC(=O)c1ccc(OCc2cc(F)ccc2F)cc1 [Compound 8p] | 3.27 | 9.82 | 236 to 238 | 26.58 | 35.44 | 14.47 | 18.74 | 41.4 ± 2.45 | 65.1 ± 1.47 | 175 ± 6.73 |
| Cc1c(O)c(=O)ccn1CCNC(=O)c1cccc(O)c1 [Compound 8x] | 3.28 | 9.75 | 144 to 146 | 25.93 | 34.96 | 14.67 | 18.46 | 43.63 ± 0.34 | 55.75 ± 0.03 | 121 ± 1.94 |
| CCCOc1ccc(C(=O)NCCn2ccc(=O)c(O)c2C)cc1 [Compound 8i] | 3.41 | 9.84 | 214 to 243 | 25.98 | 35.18 | 14.56 | 18.40 | > 50 | 53.41 ± 0.31 | 89.1 ± 10.1 |
| Cc1ccc(COc2ccc(C(=O)NCCn3ccc(=O)c(O)c3C)cc2)cc1 [Compound 8t] | 3.12 | 9.93 | 245 to 247 | 26.42 | 35.19 | 14.45 | 18.18 | 45.1 ± 1.62 | 64.1 ± 0.82 | 118 ± 4.24 |
| Cc1cccc(COc2ccc(C(=O)NCCn3ccc(=O)c(O)c3C)cc2)c1 [Compound 8s] | 3.31 | 9.86 | – | 26.67 | 35.67 | 14.67 | 18.85 | 49.3 ± 2.58 | 71.3 ± 1.02 | 122.3 ± 0.21 |
| COc1cccc(C(=O)NCCn2ccc(=O)c(O)c2C)c1 [Compound 8c] | 3.37 | 9.83 | 218 to 220 | 26.17 | 35.55 | 14.68 | 18.80 | 31.9 ± 0.85 | 59.97 ± 0.14 | – |
| COc1ccccc1C(=O)NCCn1ccc(=O)c(O)c1C [Compound 8b] | 3.41 | 9.88 | – | 26.20 | 35.45 | 14.64 | 18.56 | 38.8 ± 1.16 | 59.9 ± 1.57 | – |
